We go through one compound from patent publication US11160788B2, “Caspase-1 inhibition and uses thereof for prevention and treatment of neurological conditions” (priority 2016, dated 2021).

Data set [1] relates to J20 mice. Put plainly: Aβ immunostaining, thioflavin S and ELISA, treated symptomatic J20 mice brains. It counts as in vivo, mouse. The text has this: (§1) FIG. 11: VX-765 prevents the progression of Aβ in J20 mice. (a) Aβ immunohistographs of the stratum lacunosum molecular layer of the hippocampus and S1 cortex of pre-treated 5-month old J20 (baseline) and 8-month old vehicle- or VX-765-treated WT or J20 mice with anti-F2576 antiserum (Scale bar=50 μm). (b) Quantitative analysis comparing Aβ immunostaining density between J20+Vehicle (n=5) and J20+VX-765 (n=4) mice in the hippocampus from the pyramidal cell layer to the stratum lacunosum molecular layer (p=0.0029) and cortex (p=0.0314, unpaired t test). (c) Quantitative analysis comparing RIPA-soluble Aβ42 over total Aβ (Aβ38+Aβ40+Aβ42) levels in pre-treated 5-month old J20, 8-month old vehicle- or VX-765 treated J20 mice hippocampus (F(2,9)=6.614, p=0.0171, ANOVA, Tukey's post-hoc, * p<0.05). No ELISA signal was obtained from WT mice brains. (d) RIPA-soluble total Aβ measured by ELISA in pg/mg brain tissue. (e,f) Formic acid soluble Aβ42 over total Aβ (Aβ38+Aβ40+Aβ42) (e) and total Aβ (f) levels measured by ELISA in pg/mg brain tissue. Student t-test used to assess difference between J20+vehicle and J20+VX-765. (g,h,i) RIPA-soluble and (j,k,l) formic acid soluble Aβ38, Aβ40, and Aβ42 measured by ELISA in pg/mg brain tissue. (m) APP mRNA and protein levels and (n) insulin degrading enzyme (IDE) and neprilysin mRNA levels (o) in hippocampus and cortex.
FIG. 19: Aβ stained with Thioflavin S or anti-Aβ1-40 F25276 antiserum in mice hippocampi or cortex. (a) Comparison of anti-Aβ immunostaining and thioflavin S stained Aβ in 8 month old vehicle-treated WT and J20 and in VX-765-treated J20 brain hippocampi and cortex (after T3). (b) Anti-Aβ F25276 immunopositive staining in 8 month old vehicle-treated J20, J20/Casp1−/−, and VX-765-treated (T3) mice hippocampi. (c) Higher magnification of Aβ and Iba1 immunopositive deposits in 8 month old vehicle-treated J20, J20/Casp1^−/−, and VX-765-treated (T3) mice hippocampi.
(§2) To assess AD-like pathology, immunohistochemical analyses were performed to detect amyloid deposition (anti-AβF25276)^5,6, microglial (Iba1) activation^7, astrogliosis (GFAP), synaptophysin protein levels on coronal brain sections. Multiplex MSD ELISA was used to assess Aβ levels and 38,40, and 42 subtypes, and II-1β brain levels. RT-PCR was used to assess levels of human APP^Sw/Ind.
A general note: An ELISA detects its analyte on a solid surface through an enzyme-linked reagent.

Data set [2] concerns serum-deprived human neurons. Put plainly: Aβ42/total Aβ and cytokine levels of serum-deprived human neurons. The class given is cell-based. The procedure: FIG. 13: VX-765 protects CNS primary human neurons (HPN) against APP- or serum deprivation-mediated neuritic beading. (a) MTT assay with increasing dose of VX-765. (b) Fluorescent micrographs showing homogeneous distribution of EGFP in normal neurons and neuritic beading in APP-transfected neurons. (c) Percentage beading in APP-transfected or serum-deprived neurons treated 1 h before and continuously with stressor (Pre-treatment) or 48 h after stressor (post-beading treatment) with 25 or 50 μM VX-765 or with 5 μM Z-YVAD-fmk Casp1 peptide inhibitor. […] (d-e) HPN secreted or cellular Aβ42/total Aβ38+40+42 (d) (F(3,4)=12.73, p=0.0163, ANOVA, Dunnett's post-hoc compared to Serum+DMSO, *p<0.05), and (e) levels of secreted II-1β, IFN-γ, TNF-α, and II-6 from untreated (+S), serum deprived (−S), or serum-deprived human neurons treated with 25 or 50 μM VX-765.

The subject of data set [3] is J20 mice. Put plainly: Iba1 microglia immunohistochemistry, treated symptomatic J20 mice brains. It counts as in vivo, mouse.
Text: FIG. 10: VX-765 reverses neuroinflammation in J20 mice. (a) Iba-1 positive microglia immunohistographs in the stratum lacunosum molecular area of the hippocampus and S1 of cortex (Scale bar=50 μm). (b) Stereological quantification of Iba-1^+ microglia for WT+Vehicle (n=6), J20+Vehicle (n=5), and J20+VX-765 (n=4) in the hippocampus from the pyramidal cell layer to the stratum lacunosum molecular layer (F(2,11)=58, p<0.0001) and cortex (F(2,11)=39.95, p<0.0001, ANOVA, Dunnett's post-hoc compared to J20+Vehicle, ***p<0.001). (c) Average percentage distribution of morphological microglial subtypes 1 (black (lowermost) bar), 2 (light grey bar), 3 (dark grey bar) and 4 (black (uppermost) bar). (d) II1-β pg/mg levels measured by ELISA in pre-treated J20 at 5 months of age and in treated WT and J20 8 months of age. (e) Astroglial GFAP^+ immunohistographs.
as §2

The test system of data set [4] is J20 mice. Put plainly: APP, Casp1, Casp6, IDE and neprilysin expression, treated symptomatic J20 mice. The class given is in vivo, mouse. The settings on record: RT-PCR, J20 brains, preliminary.
Text: FIG. 5: Western blot against the C-terminus (C11) and Aβ (6E10) regions of APP in TREATMENT mice groups before washout.
as §1, with “(m) APP mRNA and protein levels and (n) insulin degrading enzyme (IDE) and neprilysin mRNA levels (o) in hippocampus and cortex.” left out

Data set [5] can be described thus: Blood brain barrier permeability, brain and plasma levels. It counts as in vivo, mouse. The conditions noted are these: WT and J20 mice. On the procedure: FIG. 14: Selectivity and blood brain permeability of VX-765 and VRT-043198. (a-b) IC50 of VX-765 (a) and VRT-043198 (b) against human Casp1-10. (c-d) IC50 of VX-765 (c) and VRT-043198 (d) against mouse Casp1 and Casp11. (e) Blood brain barrier permeability and presence of VX-765 and VRT-043198 in 3 wild type and 4 J20 mice brain cortex and hippocampus and in plasma. Ratios of brain levels to plasma levels are calculated.

“Also recorded” adds a separate entry of the source.

As to `CCO[C@@H]1OC(=O)C[C@@H]1NC(=O)[C@@H]1CCCN1C(=O)[C@@H](NC(=O)c1ccc(N)c(Cl)c1)C(C)(C)C` [VX-765, (S)-1-((S)-2-{[1-(4-amino-3-chloro-phenyl)-methanoyl]-amino}-3,3-dimethyl-butanoyl)-pyrrolidine-2-carboxylic acid ((2R,3S)-2-ethoxy-5-oxo-tetrahydro-furan-3-yl)-amide], in the data set with J20 mice [1] (ELISA of RIPA-extracted brain proteins), the “Aβ42 level in cortex” value is “reduced”. Moreover, in the data set on J20 mice [1] (hippocampal and cortical tissues), the “formic acid soluble Aβ38, Aβ40, Aβ42” value is given as “less abundant”. Moreover, in the data set with J20 mice [1] (hippocampus), the “RIPA soluble Aβ42” value is reported as “reduced in the hippocampus” and the “formic acid soluble Aβ42 over total Aβ38+40+42” value was “also reduced”. Moreover, in the data set on J20 mice [1] (hippocampus and cortex), the “RIPA-soluble Aβ42 over total Aβ38+40+42” value is recorded as “also reduced” and the “formic acid soluble total Aβ” value is listed as “strongly decreased”. The “deposited Aβ (thioflavin S, anti-Aβ immunostaining)” value with J20 mice [1] (hippocampus and cortex, 50 mg/kg, 12 injections, vs vehicle-injected J20, 50 mg/kg) was “only retained rare amyloid deposits; also recorded: substantially reduced”. Besides, in data set [2] (25 μM), the “secreted and cellular Aβ42/total Aβ levels” value was “reduced secreted, but not cellular”. In addition, the “secreted and cellular Aβ42/total Aβ levels” value in data set [2] (50 μM) was “reduced secreted and cellular”. In data set [2] (25 and 50 μM, trend, not statistically significant), the “levels of II-1β, IFN-γ, TNF-α, and II-6” value is on record as “reduced at both concentrations”. Besides, in the data set with J20 mice [3] (50 mg/kg, 12 injections, 8 month old J20), the “Iba1-positive microglia in hippocampus CA1” value is recorded as “normalized; also recorded: reduced to WT levels”. Also, the “number of Iba1+ microglia, pyramidal cell layer to stratum lacunosum molecular layer of CA1” value in the data set on J20 mice [3] (50 mg/kg, after Treatment 3, stereological quantification) was “returned to normal”. Further, in the data set on J20 mice [3] (hippocampus and cortex, vs vehicle-treated J20), the “microglial activation measured morphologically” value is “more resting, and less activated, microglia”. Further, the “Casp1 and Casp6 mRNA” value in the data set with J20 mice [4] is recorded as “reduction”. Moreover, in data set [5], the “blood brain barrier crossing” value is listed as “crossed the blood brain barrier”; the “concentrations in hippocampus and cortex” value is given as “reached physiologically active concentrations”; the “metabolism of the pro-drug” value is reported as “metabolized into VRT-043198”.
